According to ChEMBL document CHEMBL1159198, “Identification of magnolol and honokiol as anxiolytic agents in extracts of saiboku-to, an oriental herbal medicine” (1998):
Calls of active or inactive are those of the source. The rule behind the calls is not given here.

Experiments:
Mus musculus [1] = experiment: Anxiolytic activity in ddY mouse assessed as time spent in open-sided arms at 0.49 mg/kg, po administered once daily for 7 days by elevated plus-maze test; format: functional, organism-based; design: dose 0.49 mg/kg
Mus musculus [2] = experiment: Anxiolytic activity in ddY mouse assessed as time spent in open-sided arms at 1 mg/kg, po administered once daily for 1 day by elevated plus-maze test; format: functional
Mus musculus [3] = experiment: Anxiolytic activity in ddY mouse assessed as time spent in open-sided arms at 0.19 mg/kg, po administered once daily for 5 days by elevated plus-maze test; format: functional
Mus musculus [4] = experiment: Anxiolytic activity in ddY mouse assessed as time spent in open-sided arms at 0.19 mg/kg, po administered once daily for 1 day by elevated plus-maze test; format: functional
Mus musculus [5] = experiment: Anxiolytic activity in ddY mouse assessed as time spent in open-sided arms at 0.19 mg/kg, po administered once daily for 3 days by elevated plus-maze test; format: functional
Mus musculus [6] = experiment: Anxiolytic activity in ddY mouse assessed as time spent in open-sided arms at 0.19 mg/kg, po administered once daily for 7 days by elevated plus-maze test; format: functional
Mus musculus [7] = experiment: Anxiolytic activity in ddY mouse assessed as time spent in open-sided arms at 0.19 mg/kg, po administered once daily for 14 days by elevated plus-maze test; format: functional

## C=CCc1ccc(O)c(-c2cc(CC=C)ccc2O)c1
Mus musculus [1]
  Activity: Active

## CN1C(=O)CN=C(c2ccccc2)c2cc(Cl)ccc21 [DIAZEPAM]
Mus musculus [2]
  Time: 22.1 s

## C=CCc1ccc(O)c(-c2ccc(O)c(CC=C)c2)c1 [HONOKIOL]
Mus musculus [3]
  Time: 9.1 s
Mus musculus [4]
  Time: 3.7 s
Mus musculus [1]
  Activity: Active
Mus musculus [5]
  Time: 4 s
Mus musculus [6]
  Time: 10.9 s
Mus musculus [7]
  Time: 12.3 s
